Measured values published in US10973776B1, “Loteprednol etabonate nanoparticles in thermoreversible gels for enhanced therapeutics” (University of South Florida, priority 2015, dated 2021).
“Also recorded” adds a separate entry of the source.

Experiments:
Assay type in all cases: cell-based, Human
[1] = system: VEGF secretion in ARPE-19 cells; assay: VEGF secretion ELISA, LE formulations
Protocol: (§1) Human retinal pigment epithelium, ARPE-19, cells (ATCC # CRL-2302) were grown in 1:1 Dulbecco's Modified Eagle's Medium and Ham's F12 Medium (Mediatech, Inc., Manassas, Va.) with 10% fetal bovine serum and 100 U/mL penicillin/streptomycin (Sigma Aldrich, St. Louis, Mo.). The cultures were maintained in a humid environment at 5% CO2 and 37° C.
ARPE-19 cells were seeded onto 24-well plates at 5×10^4 cells/mL and allowed to grow until confluence. On the day of study, cell culture media were replaced with 1% FBS experimental media and allowed to remain in quiescence for 12 hours. The cellular monolayers were incubated with varying treatment concentrations of free LE solution (1, 10 μM), LE NPs (10 μM), and LE NPs-TR gel (10 μM). Culture media were collected at 12 and 72 hours. Secreted VEGF in collected culture media was quantified by the ELISA method (Human VEGFA ELISA kit, Thermo Scientific, Waltham, Mass.). The cell protein content was assayed using the BCA protein assay kit after lysing the cells and VEGF secretion was normalized to total protein. Samples were read by using the Synergy H4 plate reader (Biotek Industries, Inc., Winooski, Vt.) with absorbance at 450 nm minus absorbance at 550 nm.

ARPE-19 cells [2] = assay: MTT cytotoxicity assay of LE DDS; conditions: 1, 10, 100 μM, 24 hours
Protocol: as §1
Cytotoxicity was assessed in ARPE-19 cells by the 3-(4,5-dimethylthiazol-2-yl)-2,5-diphenyltetrazolium bromide salt (MTT) assay. Briefly, cells were seeded in 24-well plates at a density of 5×10^4 cells/mL for 24 hours to achieve confluence before treatment. Cells were exposed to free LE solution, LE NPs, and LE NPs-TR gel at varying concentrations (0, 1, 10, 100 μM) for 24 hours after which the MTT assay was performed. Cell culture media were aspirated and 300 μL of MTT reagent solution (1 mg/mL) was added to each well. Cells were incubated at 37° C. and 5% CO2 for 4 hours, after which the MTT reagent solution was aspirated and 500 μL of DMSO was added to each well. Plates were allowed to shake gently for 10 minutes before being read by Synergy H4 plate reader (Biotek Industries, Inc., Winooski, Vt.) at absorbance of 570 nm.

[3] = system: VEGF secretion in ARPE-19 cells; assay: VEGF secretion ELISA, TA formulations; conditions: 10 μM, 72 h
Protocol: Human retinal pigment epithelium, ARPE-19, cells (ATCC # CRL-2302) were grown in 1:1 Dulbecco's Modified Eagle's Medium and Ham's F12 Medium (Mediated, Inc., Manassas, Va.) with 10% fetal bovine serum and 100 Um′ penicillin/streptomycin (Sigma Aldrich, St. Louis, Mo.). The cultures were maintained in a humid environment at 5% CO2 and 37° C. ARPE-19 cells were seeded onto 24-well plates at 5×10^4 cells/ml and allowed to grow until confluence. On the day of study, cell culture media were replaced with 1% FBS experimental media and allowed to remain in quiescence for 12 h. The cellular monolayers were incubated with varying treatment concentrations of free TA solution (1, 10 and 100 μM), TA NPs (10 and 100 μM) and TA NP-TR gel (10 and 100 μM). Culture media were collected at 12 and 72 h. Secreted VEGF in collected culture media was quantified by the ELISA method (Human VEGFA ELISA kit, Thermo Scientific, Waltham, Mass.). The cell protein content was assayed using the BCA protein assay kit after lysing the cells, and VEGF secretion was normalized to total protein. Samples were read using the Synergy H4 plate reader (Biotek Industries, Inc., Winooski, Vt.) with absorbance at 450 nm minus absorbance at 550 nm.

ARPE-19 cells [4] = assay: MTT cytotoxicity assay of TA DDS; conditions: 10 μM, 24 h
Protocol: as §1, with “(Mediated,” for “(Mediatech,”, “Um′” for “U/mL”
The cytotoxicity of the DDS was assessed in ARPE-19 cells by the 3-(4,5-dimethylthiazol-2-yl)-2,5-diphenyltetrazolium bromide salt (MTT) assay. Briefly, cells were seeded in 24-well plates at a density of 5×10^4 cells/ml for 24 h to achieve confluency before treatment. Cells were exposed to free TA, TA NPs, and TA NP-TR gel at varying concentrations (0, 1, 10, 100 μM) for 24 h after which the MTT assay was performed. Cell culture media were aspirated, and […] of MTT reagent solution (1 mg/ml) was added to each well. Cells were incubated at 37° C. and 5% CO2 for 4 h, after which the MTT reagent solution was aspirated and 1 mL of DMSO was added to each well. Plates were allowed to shake gently for 10 min before being read by Synergy H4 plate reader (Biotek Industries, Inc., Winooski, Vt.) at absorbance of 570 nm.

| SMILES | suppression of VEGF expression vs media control ([1]; 1 μM, 12 hours) | suppression of VEGF secretion vs control ([1]; 10 μM, 12 hours) | reduction of VEGF expression compared to control ([1]; within 12 hours, p<0.05, concentration not stated) | MTT cytotoxicity vs untreated control cells (ARPE-19 cells [2]) | MTT cytotoxicity vs untreated control cells (ARPE-19 cells [2]; listed as free LE solution) | suppression of VEGF expression [3] | MTT cytotoxicity vs untreated control cells (ARPE-19 cells [4]) |
| --- | --- | --- | --- | --- | --- | --- | --- |
| CCOC(=O)O[C@]1(C(=O)OCCl)CC[C@H]2[C@@H]3CCC4=CC(=O)C=C[C@]4(C)[C@H]3[C@@H](O)C[C@@]21C [free LE, Loteprednol etabonate] | showed reduction in VEGF expression | showed reduction in VEGF expression | significantly reduced VEGF expression | no impact on cell viability | no cytotoxicity | – | – |
| CC1(C)O[C@@H]2C[C@H]3[C@@H]4CCC5=CC(=O)C=C[C@]5(C)[C@@]4(F)[C@@H](O)C[C@]3(C)[C@]2(C(=O)CO)O1 [free TA, Triamcinolone acetonide] | – | – | – | – | – | no significant effect | induced significant cell death; also recorded: cytotoxic |
